PubChem BioAssay (NCI)
“And” between values parts separate entries of the source, which are not always exact repeats. Equal entries are not always repeated.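 How tested: cells in 96-well plates exposed to compound for 48 hours at five concentrations. GI50 marks 50% less growth. Definition used: TGI = concentration required for complete inhibition of growth.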

What was measured:
Assay in all cases: NCI anticancer screen, dose series, 48 h
A549 NSCLC = tested on: A549 NSCLC
MCF7 breast = tested on: MCF7 breast
RPMI-8226 leukemia = tested on: RPMI-8226 leukemia
OVCAR-8 ovarian = tested on: OVCAR-8 ovarian
U251 CNS = tested on: U251 CNS
CCRF-CEM leukemia = tested on: CCRF-CEM leukemia
MDA-MB-231 breast = tested on: MDA-MB-231 breast
DU-145 prostate = tested on: DU-145 prostate
786-0 renal = tested on: 786-0 renal
MALME-3M melanoma = tested on: MALME-3M melanoma

Compound | GI50 (A549 NSCLC) | TGI (A549 NSCLC) | GI50 (MCF7 breast) | TGI (MCF7 breast) | GI50 (RPMI-8226 leukemia) | TGI (RPMI-8226 leukemia) | GI50 (OVCAR-8 ovarian) | TGI (OVCAR-8 ovarian) | GI50 (U251 CNS) | TGI (U251 CNS) | GI50 (CCRF-CEM leukemia) | TGI (CCRF-CEM leukemia) | GI50 (MDA-MB-231 breast) | TGI (MDA-MB-231 breast) [µM] | GI50 (DU-145 prostate) | TGI (DU-145 prostate) | GI50 (786-0 renal) | TGI (786-0 renal) | GI50 (MALME-3M melanoma) | TGI (MALME-3M melanoma)
Cn1c(/C=C(\C#N)c2ccccc2)nc2c(N3CCOCC3)nc(Cl)nc21 | 1.53 µM | 4.03 µM | 0.48 µM | 2.15 µM | 0.254 µM | 0.804 µM | 1.04 µM | 3.39 µM | 1.47 µM | 2.97 µM | 0.295 µM | 0.971 µM | 1.31 µM | 2.92 | 1.28 µM | 2.56 µM | 1.56 µM | 3.05 µM | 1.45 µM | 2.86 µM
C=C(CN1C(=O)[C@H]2CCCN2C(=O)c2ccccc21)c1ccc(C(=O)O)cc1 | > 100 µM | > 100 µM | > 100 µM | > 100 µM | > 100 µM | > 100 µM | > 100 µM | > 100 µM | > 100 µM | > 100 µM | > 100 µM | > 100 µM | > 100 µM | > 100 | > 100 µM | > 100 µM | > 100 µM | > 100 µM | > 100 µM | > 100 µM
O=C1CCCCCCCC/C=C\CC(c2ccco2)O1 (stereo not given) | 46 µM | > 100 µM | 4.81 µM | > 100 µM | 43.2 µM | > 100 µM | 33.4 µM | > 100 µM | 19.5 µM | 48.2 µM | 36 µM | > 100 µM | 14.6 µM | 41.9 | 44.8 µM | > 100 µM | 21.4 µM | 70.3 µM | 26.3 µM | > 100 µM
O=C1C(=O)c2ccccc2C(O)=C1CC=C(Br)Br | 2.82 µM | 62.2 µM | 4.29 µM | > 100 µM | 1.57 µM | 31.1 µM | 2.14 µM | 66.8 µM | 0.976 µM | 52.7 µM | 2.7 µM | > 100 µM | 8.98 µM | 27 | 9.36 µM | > 100 µM | 3.99 µM | > 100 µM | 18.2 µM | 60.4 µM
N#Cc1nc2c(S(=O)(=O)c3ccccc3)c(N)n(Cc3cccnc3)c2nc1C#N | > 100 µM | > 100 µM | 13.1 µM | > 100 µM | > 100 µM | > 100 µM | 10.9 µM | > 100 µM | 9.35 µM | 33.6 µM | 3.86 µM | > 100 µM | 11.8 µM | 52.2 | 24.7 µM | > 100 µM | 22.2 µM | 79.3 µM | 3.7 µM | 27.3 µM
O=C(CN1CCN(CCCOc2c(-c3ccccc3)oc3ccccc3c2=O)CC1)Nc1ccc(Cl)cc1C(=O)c1ccccc1Cl | 6.37 µM | > 100 µM | 3.5 µM | 26.5 µM | 2.59 µM | 7.14 µM | 4.33 µM | 22.2 µM | 5.86 µM | 19.1 µM | 0.635 µM | 12 µM | 4.26 µM | 19.3 | 19.8 µM | > 100 µM | 5.58 µM | 19.4 µM | 4 µM | 8.91 µM
COc1ncc(-c2ccc3nccc(-c4ccnnc4)c3c2)cc1NS(=O)(=O)c1ccc(F)cc1F | 0.00882 µM and < 0.01 µM | 1.49 µM and 1.32 µM | 0.00101 µM and < 0.01 µM | > 10 µM and 11 µM | 0.0321 µM and 0.0297 µM | 0.656 µM and 0.963 µM | 0.0191 µM and 0.0173 µM | > 5.42 µM and 3.25 µM | 0.0194 µM and < 0.0147 µM | > 3.43 µM and 0.923 µM | 0.0333 µM and 0.0262 µM | 0.706 µM and 4.04 µM | 0.0392 µM and 0.0439 µM | 1.83 | 0.0119 µM and 0.0164 µM | > 10 µM and 13 µM | 0.00651 µM and < 0.01 µM | 0.0791 µM and 0.106 µM | 0.00473 µM and < 0.01 µM | 0.114 µM and 0.0222 µM
CC(=O)[C@@]1(O)CC[C@H]2[C@@H]3C[C@H](C)C4=CC(=O)CC[C@]4(C)[C@H]3[C@@H](O)C[C@@]21C |  | > 100 µM |  | > 100 µM |  | > 100 µM |  | > 100 µM |  | > 100 µM |  | > 100 µM |  | > 100 |  | > 100 µM |  | > 100 µM |  | > 100 µM
CC(C)(C)c1nn(-c2ccccc2)c2c1C(=O)CSC(c1ccccc1Cl)N2 (stereo not given) | 1.67 µM | 14 µM | 1.03 µM | 13.5 µM | 3.02 µM | 19.3 µM | 6.65 µM | 30.2 µM | 2.41 µM | 15.5 µM | 2.48 µM | 13.5 µM | 3.57 µM | 16 | 2.86 µM | 10.7 µM | 3.32 µM | 15.1 µM | 14.7 µM | 32.6 µM
CCC(CO)Nc1nc(NCc2ccccc2O)c2ncn(C(C)C)c2n1 (stereo not given) | 4.03 µM | > 100 µM | 2.88 µM | 8.73 µM | 4.41 µM | 20.7 µM | 4.21 µM | > 100 µM | 4.75 µM | > 100 µM | 2.21 µM | 9.39 µM | 4.22 µM | 38 | 4.46 µM | > 100 µM | 4.46 µM | > 100 µM | 40.1 µM | > 100 µM
COc1ccc(-n2nnnc2-c2c[nH]c3c(F)cc(F)cc23)cc1 | > 100 µM | > 100 µM | > 100 µM | > 100 µM | > 100 µM | > 100 µM | 39.6 µM | > 100 µM | 32.2 µM | > 100 µM | > 100 µM | > 100 µM | 27.1 µM | > 100 | > 100 µM | > 100 µM | 31.5 µM | > 100 µM | > 100 µM | > 100 µM
COC(=O)c1c2c(c(C)[n+]([O-])c1C)C(=O)C=C(NCc1ccc(F)c(Cl)c1)C2=O | 0.352 µM | 1.95 µM | 0.169 µM | 0.892 µM | 0.839 µM | 3.93 µM | 0.155 µM | 1.14 µM | 0.291 µM | 1.44 µM | 0.475 µM | 4.71 µM | 0.269 µM | 3.42 | 0.566 µM | 2.07 µM | 1.13 µM | 3.6 µM | 0.149 µM | 0.332 µM
